# Measured values as given in PubChem BioAssay AID328 (DTP/NCI, 2004).
# “And” between values parts separate entries of the source, which are not always exact repeats. Identical values can stand only once. Inconclusive results and toxic doses are left out.
# System: BDF1 mice, P388 leukemia ip, median survival T/C
# Test: NCI In Vivo Anticancer Drug Screen. Data for tumor model P388 Leukemia (intraperitoneal) in B6D2F1 (BDF1) mice
# Conditions: endpoint: median survival time, higher = longer survival
# Method in brief: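 Survival ratio, drug arm over vehicle arm, in mice with a transplanted tumour.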
# [1] = dose: 100.0 mg/kg/injection, schedule: Q01DX009 (ip), vehicle: Klucel (hydroxypropylcellulose) (HPC)
# [2] = dose: 25.0 mg/kg/injection, schedule: Q01DX009 (ip), vehicle: saline with Tween-80
# [3] = dose: 50.0 mg/kg/injection, schedule: Q01DX009 (ip), vehicle: saline with Tween-80
# [4] = dose: 100.0 mg/kg/injection, schedule: Q01DX009 (ip), vehicle: saline with Tween-80
# [5] = dose: 50.0 mg/kg/injection, schedule: Q01DX009 (ip), vehicle: Klucel (hydroxypropylcellulose) (HPC)
# [6] = dose: 50.0 mg/kg/injection, schedule: Q04DX003 (ip), vehicle: Klucel (hydroxypropylcellulose) (HPC)
# [7] = dose: 100.0 mg/kg/injection, schedule: Q01DX001 (ip), vehicle: saline with Tween-80
structure (smiles),measurement,setting,value
NC(=NCCCC(NCc1ccccc1)C(=O)O)N[N+](=O)[O-] (configuration not stated),T/C,"dose: 50.0 mg/kg/injection, schedule: Q04DX003 (ip), vehicle: saline + alcohol",103 % of control
same,T/C,"dose: 100.0 mg/kg/injection, schedule: Q04DX003 (ip), vehicle: saline + alcohol",99 % of control
same,T/C,"dose: 200.0 mg/kg/injection, schedule: Q04DX003 (ip), vehicle: saline + alcohol",94 % of control
same,T/C,"dose: 400.0 mg/kg/injection, schedule: Q04DX003 (ip), vehicle: saline + alcohol",105 % of control
Cc1cc(O)c2c3c(ccc2c1)C(=O)c1c(O)cccc1C3=O,T/C,"dose: 0.5 mg/kg/injection, schedule: Q01DX009 (ip), vehicle: Klucel (hydroxypropylcellulose) (HPC)",109 % of control
same,T/C,"dose: 1.0 mg/kg/injection, schedule: Q01DX009 (ip), vehicle: Klucel (hydroxypropylcellulose) (HPC)",110 % of control
same,T/C,"dose: 2.0 mg/kg/injection, schedule: Q01DX009 (ip), vehicle: Klucel (hydroxypropylcellulose) (HPC)",101 % of control
same,T/C,"dose: 4.0 mg/kg/injection, schedule: Q01DX009 (ip), vehicle: Klucel (hydroxypropylcellulose) (HPC)",101 % of control
BrC1(Br)CC1(c1ccccc1)c1ccccc1,T/C,[1],110 % of control
same,T/C,"dose: 200.0 mg/kg/injection, schedule: Q01DX009 (ip), vehicle: Klucel (hydroxypropylcellulose) (HPC)",110 % of control
same,T/C,"dose: 400.0 mg/kg/injection, schedule: Q01DX009 (ip), vehicle: Klucel (hydroxypropylcellulose) (HPC)",105 % of control
CCOC(=O)C(CNc1ccccc1)C(=O)OCC,T/C,[2],95 % of control
same,T/C,[3],95 % of control
same,T/C,[4],95 % of control and 100 % of control
same,T/C,"dose: 200.0 mg/kg/injection, schedule: Q01DX009 (ip), vehicle: saline with Tween-80",100 % of control
same,T/C,"dose: 400.0 mg/kg/injection, schedule: Q01DX009 (ip), vehicle: saline with Tween-80",108 % of control and 109 % of control
C=CCO,T/C,"dose: 12.5 mg/kg/injection, schedule: Q01DX001 (ip), vehicle: saline with Tween-80",95 % of control
same,T/C,"dose: 25.0 mg/kg/injection, schedule: Q01DX001 (ip), vehicle: saline with Tween-80",104 % of control
same,T/C,"dose: 50.0 mg/kg/injection, schedule: Q01DX001 (ip), vehicle: saline with Tween-80",100 % of control
O=c1ccc2ccccc2o1,T/C,"dose: 50.0 mg/kg/injection, schedule: Q01DX010 (ip), vehicle: saline",100 % of control
same,T/C,"dose: 100.0 mg/kg/injection, schedule: Q01DX010 (ip), vehicle: saline",90 % of control
same,T/C,"dose: 200.0 mg/kg/injection, schedule: Q01DX010 (ip), vehicle: saline",90 % of control
same,T/C,"dose: 400.0 mg/kg/injection, schedule: Q01DX010 (ip), vehicle: saline",95 % of control
O=c1[nH]c(=O)c2cccnc2[nH]1,T/C,"dose: 25.0 mg/kg/injection, schedule: Q01DX009 (ip), vehicle: saline sonified",100 % of control
same,T/C,"dose: 50.0 mg/kg/injection, schedule: Q01DX009 (ip), vehicle: saline sonified",100 % of control
same,T/C,"dose: 100.0 mg/kg/injection, schedule: Q01DX009 (ip), vehicle: saline sonified",94 % of control
CCC1c2ccc3cc(OC)ccc3c2C(=O)CC1C(=O)O (configuration not stated),T/C,"dose: 100.0 mg/kg/injection, schedule: Q04DX003 (sc), vehicle: steriod suspending solution",113 % of control
same,T/C,"dose: 200.0 mg/kg/injection, schedule: Q04DX003 (sc), vehicle: steriod suspending solution",100 % of control
same,T/C,"dose: 400.0 mg/kg/injection, schedule: Q04DX003 (sc), vehicle: steriod suspending solution",95 % of control
CC(O)C#CC(C)O (configuration not stated),T/C,"dose: 12.5 mg/kg/injection, schedule: Q01DX009 (ip), vehicle: Klucel (hydroxypropylcellulose) (HPC)",91 % of control
same,T/C,"dose: 12.5 mg/kg/injection, schedule: Q04DX003 (ip), vehicle: Klucel (hydroxypropylcellulose) (HPC)",118 % of control
same,T/C,"dose: 25.0 mg/kg/injection, schedule: Q01DX009 (ip), vehicle: Klucel (hydroxypropylcellulose) (HPC)",91 % of control
same,T/C,"dose: 25.0 mg/kg/injection, schedule: Q04DX003 (ip), vehicle: Klucel (hydroxypropylcellulose) (HPC)",104 % of control
same,T/C,[5],95 % of control
same,T/C,[6],109 % of control
O=[N+]([O-])c1ccc(N/N=C/CC(O)CO)c([N+](=O)[O-])c1 (configuration not stated),T/C,"dose: 100.0 mg/kg/injection, schedule: Q01DX009 (ip), vehicle: saline",100 % of control
same,T/C,"dose: 200.0 mg/kg/injection, schedule: Q01DX009 (ip), vehicle: saline",120 % of control
C(=C/c1nc2ccccc2o1)/c1ccc2c(c1)OCO2,T/C,"dose: 50.0 mg/kg/injection, schedule: Q01DX011 (ip), vehicle: Klucel (hydroxypropylcellulose) (HPC)",102 % of control
same,T/C,"dose: 100.0 mg/kg/injection, schedule: Q01DX001 (ip), vehicle: Klucel (hydroxypropylcellulose) (HPC)",100 % of control
same,T/C,"dose: 100.0 mg/kg/injection, schedule: Q01DX011 (ip), vehicle: Klucel (hydroxypropylcellulose) (HPC)",99 % of control
same,T/C,"dose: 200.0 mg/kg/injection, schedule: Q01DX001 (ip), vehicle: Klucel (hydroxypropylcellulose) (HPC)",86 % of control
same,T/C,"dose: 200.0 mg/kg/injection, schedule: Q01DX011 (ip), vehicle: Klucel (hydroxypropylcellulose) (HPC)",100 % of control
same,T/C,"dose: 400.0 mg/kg/injection, schedule: Q01DX001 (ip), vehicle: Klucel (hydroxypropylcellulose) (HPC)",94 % of control
CC(=O)Nc1cc(OC(C)=O)n(-c2ccccc2)n1,T/C,"dose: 87.5 mg/kg/injection, schedule: Q01DX009 (ip), vehicle: saline with Tween-80",97 % of control
same,T/C,"dose: 175.0 mg/kg/injection, schedule: Q01DX009 (ip), vehicle: saline with Tween-80",86 % of control
same,T/C,"dose: 350.0 mg/kg/injection, schedule: Q01DX009 (ip), vehicle: saline with Tween-80",98 % of control
NC(CS(=O)(=O)c1ccc(N(CCCl)CCCl)cc1)C(=O)O (configuration not stated),T/C,[7],108 % of control
same,T/C,"dose: 200.0 mg/kg/injection, schedule: Q01DX001 (ip), vehicle: saline with Tween-80",101 % of control
same,T/C,"dose: 400.0 mg/kg/injection, schedule: Q01DX001 (ip), vehicle: saline with Tween-80",90 % of control
COc1cccc2c(Cl)c(CCl)c(C)nc12,T/C,"dose: 6.25 mg/kg/injection, schedule: Q01DX009 (ip), vehicle: saline with Tween-80",94 % of control
same,T/C,"dose: 12.5 mg/kg/injection, schedule: Q01DX009 (ip), vehicle: saline with Tween-80",110 % of control
same,T/C,[2],103 % of control
same,T/C,[3],103 % of control
same,T/C,[4],103 % of control
CCCOP(=S)(N1CC1)N1CC1,T/C,"dose: 25.0 mg/kg/injection, schedule: Q01DX009 (ip), vehicle: other",100 % of control
same,T/C,[6],116 % of control
same,T/C,[1],100 % of control
same,T/C,"dose: 100.0 mg/kg/injection, schedule: Q01DX009 (ip), vehicle: other",150 % of control
same,T/C,"dose: 200.0 mg/kg/injection, schedule: Q04DX003 (ip), vehicle: Klucel (hydroxypropylcellulose) (HPC)",183 % of control
CC(C)NCc1ccccc1Sc1ccccc1,T/C,[7],101 % of control
O=S(=O)(Nc1ccccc1Cl)c1ccccc1,T/C,"dose: 100.0 mg/kg/injection, schedule: Q04DX003 (ip), vehicle: gum acacia",111 % of control
same,T/C,"dose: 200.0 mg/kg/injection, schedule: Q04DX003 (ip), vehicle: gum acacia",96 % of control
same,T/C,"dose: 400.0 mg/kg/injection, schedule: Q04DX003 (ip), vehicle: gum acacia",111 % of control
C/C(=N/N(C)C)c1ccc([N+](=O)[O-])cc1,T/C,"dose: 6.25 mg/kg/injection, schedule: Q01DX009 (ip), vehicle: saline",87 % of control
same,T/C,"dose: 12.5 mg/kg/injection, schedule: Q01DX009 (ip), vehicle: saline",91 % of control
same,T/C,"dose: 25.0 mg/kg/injection, schedule: Q01DX009 (ip), vehicle: saline",100 % of control
same,T/C,[5],109 % of control
